Data reported in paper PMC9374744, “Structural basis for receptor selectivity and inverse agonism in S1P5 receptors” (Nature Communications, 2022).
“And” between values parts separate entries of the source, which are not always exact repeats. Identical values can stand only once.

Tests used:
human WT S1P5 receptor = human WT S1P5 receptor (Homo sapiens, UniProt Q9H228); assay: BRET-based cAMP (EPAC biosensor) Gi signaling assay, WT S1P5; conditions: WT S1P5; BRET-based cAMP sensor
human S1P5 R111Q mutant = human S1P5 R111Q mutant (Homo sapiens, UniProt Q9H228, R111Q); assay: BRET-based cAMP Gi signaling assay, S1P5 R111Q; conditions: inverse agonism
human S1P5 Y19F mutant = human S1P5 Y19F mutant (Homo sapiens, UniProt Q9H228, Y19F); assay: BRET-based cAMP Gi signaling assay, S1P5 Y19F; conditions: for BRET ratio, Supplementary Figure 6b: replicate values, listed as ONO
human S1P5 C43F mutant = human S1P5 C43F mutant (Homo sapiens, UniProt Q9H228, C43F); assay: BRET-based cAMP Gi signaling assay, S1P5 C43F; conditions: inverse agonism
human S1P5 L292V mutant = human S1P5 L292V mutant (Homo sapiens, UniProt Q9H228, L292V); assay: BRET-based cAMP Gi signaling assay, S1P5 L292V; conditions: inverse agonism
human S1P5 T79A mutant = human S1P5 T79A mutant (Homo sapiens, UniProt Q9H228, T79A); assay: BRET-based cAMP Gi signaling assay, S1P5 T79A; conditions: for EC50: inverse agonism; for BRET signal, raw replicates: Suppl. Fig. 6d, listed as ONO
human S1P5 K24Q mutant = human S1P5 K24Q mutant (Homo sapiens, UniProt Q9H228, K24Q); assay: BRET-based cAMP Gi signaling assay, S1P5 K24Q; conditions: inverse agonism
human S1P5 E112Q mutant = human S1P5 E112Q mutant (Homo sapiens, UniProt Q9H228, E112Q); assay: BRET-based cAMP Gi signaling assay, S1P5 E112Q; conditions: inverse agonism
human S1P5 L318Q mutant = human S1P5 L318Q mutant (Homo sapiens, UniProt Q9H228, L318Q); assay: BRET-based cAMP Gi signaling assay, S1P5 L318Q; conditions: inverse agonism
human S1P5 E112A mutant = human S1P5 E112A mutant (Homo sapiens, UniProt Q9H228, E112A); assay: BRET-based cAMP Gi signaling assay, S1P5 E112A; conditions: inverse agonism
[1] = Figure 2c source data, N/R = no response

human S1P5 T79A mutant, sequence (Q9H228 whole entry T79A): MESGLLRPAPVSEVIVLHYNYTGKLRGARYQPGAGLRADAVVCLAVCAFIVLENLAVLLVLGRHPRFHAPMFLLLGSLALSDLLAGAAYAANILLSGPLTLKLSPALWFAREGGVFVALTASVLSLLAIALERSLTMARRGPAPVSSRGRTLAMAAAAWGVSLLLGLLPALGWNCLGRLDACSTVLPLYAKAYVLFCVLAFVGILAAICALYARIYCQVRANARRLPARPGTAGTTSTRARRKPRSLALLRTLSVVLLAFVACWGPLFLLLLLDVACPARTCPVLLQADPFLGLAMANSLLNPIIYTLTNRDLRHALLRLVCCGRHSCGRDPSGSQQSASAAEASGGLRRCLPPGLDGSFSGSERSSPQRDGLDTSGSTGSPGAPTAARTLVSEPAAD
human S1P5 Y19F mutant, sequence (Q9H228 whole entry Y19F): as the sequence (Q9H228 whole entry T79A) above, with Y19F, A79T counted along it
human S1P5 L318Q mutant, sequence (Q9H228 whole entry L318Q): as the sequence (Q9H228 whole entry T79A) above, with A79T, L318Q counted along it
human S1P5 L292V mutant, sequence (Q9H228 whole entry L292V): as the sequence (Q9H228 whole entry T79A) above, with A79T, L292V counted along it
human S1P5 C43F mutant, sequence (Q9H228 whole entry C43F): as the sequence (Q9H228 whole entry T79A) above, with C43F, A79T counted along it
human S1P5 E112Q mutant, sequence (Q9H228 whole entry E112Q): as the sequence (Q9H228 whole entry T79A) above, with A79T, E112Q counted along it
human S1P5 K24Q mutant, sequence (Q9H228 whole entry K24Q): as the sequence (Q9H228 whole entry T79A) above, with K24Q, A79T counted along it
human S1P5 E112A mutant, sequence (Q9H228 whole entry E112A): as the sequence (Q9H228 whole entry T79A) above, with A79T, E112A counted along it
human S1P5 R111Q mutant, sequence (Q9H228 whole entry R111Q): as the sequence (Q9H228 whole entry T79A) above, with A79T, R111Q counted along it
human WT S1P5 receptor, sequence (Q9H228 whole entry): as the sequence (Q9H228 whole entry T79A) above, with A79T counted along it

## O=C(O)CCCN1CCc2cccc(OCCc3cccc4ccccc34)c2CC1 [ONO-5430608, 4-{6-[2-(1-naphthyl)ethoxy]-1,2,4,5-tetrahydro-3H-3-benzazepin-3-yl} butanoic acid]
Human WT S1P5 receptor
  mode of action on Gi-protein-mediated signaling (basal activity level): inverse agonist
Human S1P5 R111Q mutant; [1]
  ONO-5430608 pEC50, single experiments #1-#3: N/R
Human S1P5 R111Q mutant; n=3, N/R = no response
  ONO, pEC50, M: N/R
Human S1P5 Y19F mutant; [ONO] 0.169351 nM
  BRET ratio, Supplementary Figure 6b: 0.7728 and 0.7856 and 0.7903 and 0.7898 and 0.7857 and 0.7721 and 0.7815 and 0.7858 and 0.7955
Human S1P5 Y19F mutant; [ONO] 0.508053 nM
  BRET ratio, Supplementary Figure 6b: 0.7709 and 0.7829 and 0.7789 and 0.7882 and 0.7908 and 0.7857 and 0.7787 and 0.7826 and 0.7773
Human S1P5 Y19F mutant; [ONO] 1.52416 nM
  BRET ratio, Supplementary Figure 6b: 0.7699 and 0.7813 and 0.7753 and 0.786 and 0.7843 and 0.7814 and 0.7777 and 0.78 and 0.7821
Human S1P5 Y19F mutant; [ONO] 4.57247 nM
  BRET ratio, Supplementary Figure 6b: 0.7759 and 0.7968 and 0.7779 and 0.7827 and 0.7847 (2×) and 0.7768 and 0.7813 and 0.7893
Human S1P5 Y19F mutant; [ONO] 13.7174 nM
  BRET ratio, Supplementary Figure 6b: 0.7824 (2×) and 0.7736 and 0.7864 and 0.7844 and 0.776 and 0.7899 and 0.7904 and 0.7943
Human S1P5 Y19F mutant; inverse agonism, Figure 2c source data, N/R = no response
  ONO-5430608 pEC50, single experiments #1-#3: N/R
Human S1P5 Y19F mutant; inverse agonism, n=3, N/R = no response
  ONO, pEC50, M: N/R
Human S1P5 C43F mutant; ONO, pEC50, M, C43F, mean ± SD, n=3
  EC50: 4.47 nM
Human S1P5 C43F mutant; ONO-5430608 pEC50, single experiments #1-#3, C43F, Figure 2c source data
  EC50: 3.91 nM and 4.49 nM and 4.96 nM
Human S1P5 L292V mutant; ONO, pEC50, M, L292V, mean ± SD, n=3
  EC50: 23.4 nM
Human S1P5 L292V mutant; ONO-5430608 pEC50, single experiments #1-#3, L292V, Figure 2c source data
  EC50: 23 nM and 25.6 nM and 22.5 nM
Human S1P5 T79A mutant; ONO, pEC50, M, T79A, mean ± SD, n=3
  EC50: 5.13 nM
Human S1P5 T79A mutant; ONO-5430608 pEC50, single experiments #1-#3, T79A, Figure 2c source data
  EC50: 3.81 nM and 5.96 nM and 5.8 nM
Human S1P5 T79A mutant; [ONO] 0.169351 nM, T79A
  BRET signal, raw replicates: 0.7648 and 0.7694 and 0.7618 (2×) and 0.7719 and 0.7737 and 0.7678 and 0.7602 and 0.7581
Human S1P5 T79A mutant; [ONO] 0.508053 nM, T79A
  BRET signal, raw replicates: 0.7658 and 0.7637 (2×) and 0.7584 and 0.7703 and 0.7711 and 0.7719 and 0.7599 and 0.7561
Human S1P5 T79A mutant; [ONO] 1.52416 nM, T79A
  BRET signal, raw replicates: 0.7571 and 0.7588 and 0.7577 and 0.7674 and 0.7689 and 0.7688 and 0.7557 and 0.7543 and 0.7567
Human S1P5 T79A mutant; [ONO] 4.57247 nM, T79A
  BRET signal, raw replicates: 0.7445 and 0.7467 and 0.7472 (2×) and 0.7504 and 0.7523 and 0.7521 and 0.7458 and 0.7451
Human S1P5 T79A mutant; [ONO] 13.7174 nM, T79A
  BRET signal, raw replicates: 0.7344 and 0.7321 and 0.7375 and 0.7326 and 0.7336 and 0.7328 and 0.7266 and 0.7286 and 0.7299
Human S1P5 T79A mutant; [ONO] 41.1523 nM, T79A
  BRET signal, raw replicates: 0.7277 and 0.7202 and 0.7265 and 0.7247 and 0.7224 and 0.7225 and 0.7195 and 0.7262 and 0.7173
Human S1P5 T79A mutant; [ONO] 123.457 nM, T79A
  BRET signal, raw replicates: 0.7246 and 0.7211 and 0.7132 and 0.7206 and 0.7203 and 0.7177 and 0.7146 and 0.7143 and 0.7168
Human S1P5 T79A mutant; [ONO] 370.37 nM, T79A
  BRET signal, raw replicates: 0.7198 and 0.7165 and 0.7203 and 0.7175 and 0.72 and 0.7188 and 0.7152 and 0.7138 and 0.7182
Human S1P5 T79A mutant; [ONO] 1111.11 nM, T79A
  BRET signal, raw replicates: 0.7229 and 0.7217 and 0.7211 and 0.7178 and 0.7185 and 0.7189 and 0.7126 and 0.7148 and 0.7145
Human S1P5 T79A mutant; [ONO] 3333.33 nM, T79A
  BRET signal, raw replicates: 0.7168 and 0.7147 and 0.7207 and 0.7195 and 0.7142 and 0.7166 and 0.7162 and 0.7151 and 0.7155
Human S1P5 K24Q mutant; [1]
  ONO-5430608 pEC50, single experiments #1-#3: N/R
Human S1P5 K24Q mutant; n=3, N/R = no response
  ONO, pEC50, M: N/R
Human S1P5 E112Q mutant; [1]
  ONO-5430608 pEC50, single experiments #1-#3: N/R
Human S1P5 E112Q mutant; n=3, N/R = no response
  ONO, pEC50, M: N/R
Human S1P5 L318Q mutant; ONO, pEC50, M, L318Q, mean ± SD, n=3
  EC50: 22.4 nM
Human S1P5 L318Q mutant; ONO-5430608 pEC50, single experiments #1-#3, L318Q, Figure 2c source data
  EC50: 23 nM and 24.6 nM and 20.4 nM
Human S1P5 E112A mutant; [1]
  ONO-5430608 pEC50, single experiments #1-#3: N/R
Human S1P5 E112A mutant; n=3, N/R = no response
  ONO, pEC50, M: N/R
